Assay results: patent US20200299329A1, “SYNTHETIC PEPTIDES, PHARMACEUTICAL COMPOSITIONS COMPRISING THE SAME, AND USES THEREOF IN TREATING THROMBOEMBOLISM-RELATED DISEASES” (Academia Sinica, priority 2019, published 2020)

What was measured:
human thrombus = assay: Screening of thrombus-binding activity of phages by ELISA; conditions: for dose-dependent thrombus-specific binding by ELISA: BSA binding as negative control, FIG. 1C/1D; for binding affinity to human thrombus (ELISA, absorption at 450 nm): screening of 72 phage clones from the fifth round of biopanning, FIG. 1B
Description: A human thrombus was isolated and collected from a cadaver about 20 years ago in a course of fresh cadaver dissection and partial thrombus was grounded to powder and then incubated with 2×10^11 phages in 1% BSA in PBS at 4° C. for 1 hour. After washing with PBS, the bound phages were eluted from the thrombus tissue and amplified using E. coli for subsequent rounds of selection. The eluted and amplified phages were titrated on lysogeny broth (LB) medium plates containing isopropyl β-D-1-thiogalactopyranoside (IPTG) and X-Gal (5-bromo-4-chloro-3-indolyl-D-galactoside). The biopanning steps described above were repeated five times before phage clones were randomly selected for thrombus ELISA screening.
The grinded human thrombus tissue or BSA in coating buffer was used to coat 96-well ELISA plates overnight. After blocking and washing, the selected phage clones were added and incubated for 1 hour at room temperature (RT). After washing with PBS, each well was probed with horseradish peroxidase (HRP)-conjugated mouse anti-M13 antibodies (1:2000 dilution) for 1 hour at RT. After repeating the wash step, the plates were developed with ELISA substrate solution. The reaction was terminated with 3N hydrochloric acid, and the absorbance of the colorimetric substrate was analyzed using a microplate reader at 450 nm.

induced thrombus = assay: In vivo infrared fluorescence imaging of HILYTE FLUOR 750-conjugated protein at the thrombus; set-up: species or system mice; conditions: FIG. 5B
Description: Fifty micrograms of tPA or targeting peptide-tPA fusion and 4 nM HILYTE FLUOR™ 750 were mixed for 45 minutes at RT to promote conjugation. The solution was dialyzed with a 3.5-kDa-cut-off membrane overnight at 4° C. Time-course fluorescence measurements were made in mice with thrombi after intravenous injection of HILYTE FLUOR™ 750-labeled tPA or targeting peptide-tPA fusion protein. Fluorescence images were captured using an imaging system. Accumulation of HILYTE FLUOR™ 750 in the thrombus was quantified by subtracting background florescence intensity.
Fifty micrograms of thrombus affinity peptide-tPA was mixed with 4 nM HILYTE FLUOR™ 750 and incubated for 45 minutes at RT in the dark to promote the conjugation. Dialysis was performed with a 3.5-kDa-cut-off membrane overnight at 4° C. to remove excess dye. A time-course of infrared fluorescence images were acquired after intravenous injection of HILYTE FLUOR™ 750-conjugated fusion protein or tPA. Infrared fluorescence images of HILYTE FLUOR™ 750-conjugated protein were captured in living using an imaging system. Accumulation of HILYTE FLUOR™ 750 fluorescence signal in the induced thrombus was quantified and analyzed by software.

Substance | dose-dependent thrombus-specific binding by ELISA (human thrombus) | binding affinity to human thrombus (ELISA, absorption at 450 nm) (human thrombus) | time after injection at which accumulation at the induced thrombus was seen (induced thrombus; dye-conjugated protein, i.v., mice with induced thrombus) [min] | decrease of fluorescence intensity at the induced thrombus (induced thrombus; in 1 hour after i.v. injection) [%]
FQNEWFHNFLHD [PC30] | best thrombus-specific binding | relatively high binding affinity |  | 
LQKNPFDLVQIL [PC66] | best thrombus-specific binding | relatively high binding affinity |  | 
TEANLSSWVFAR [PC39] | best thrombus-specific binding | relatively high binding affinity |  | 
tPA: human recombinant tissue plasminogen activator without thrombus binding peptide, used as control |  |  | ≤ 5 | 50
